# Assays:
# kochia = test: Test C pre-/postemergence test; format: in vivo, Kochia scoparia
# Procedure, shortened: (§1)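 Seeds were planted and treated preemergence with test chemical in a non-phytotoxic solvent mixture containing surfactant. Postemergence applications of the same formulation went onto plants 2 to 18 cm tall (1- to 4-leaf stage). A dash marks no test result.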
# itchgrass = test: Test F preemergence test; format: in vivo, Rottboellia cochinchinensis; conditions: scale 0 to 100
# Procedure, shortened: (§2)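 Compound in a non-phytotoxic solvent blend with surfactant is applied preemergence to planted seeds or postemergence to sugarcane plants. Plants and controls stay in the greenhouse 14 to 21 days before visual comparison.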
# field bindweed = test: Test F preemergence test; format: in vivo, Convolvulus arvensis; conditions: scale 0 to 100
# Procedure, shortened: as §2
# cocklebur = test: Test C pre-/postemergence test; format: in vivo, Xanthium strumarium; conditions: for Plant response rating, Cocklebur: scale 0 to 100, 0 no effect, 100 complete control
# Procedure, shortened: as §1
# broadleaf signalgrass = test: Test F preemergence test; format: in vivo, Brachiaria platyphylla; conditions: scale 0 to 100
# Procedure, shortened: as §2
# barnyardgrass [1] = test: Test A pre-/postemergence greenhouse test; format: in vivo, Echinochloa crus-galli; conditions: for Barnyardgrass plant response rating: 0 to 100 scale; for Plant response rating, Barnyardgrass: 0 to 100 scale where 0 is no effect and 100 is complete control
# Procedure, shortened: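 Pots of loam–sand soil sown with the test species are sprayed preemergence on the soil surface; emerged seedlings (1–2 leaves, 2–10 cm) are sprayed postemergence at the same time. The vehicle is a non-phytotoxic solvent mixture with surfactant. Injury is scored visually after ~10 d in greenhouse.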
# Virginia dayflower = test: Test F preemergence test; format: in vivo, Commelina virginica; conditions: scale 0 to 100
# From the text: Seeds of plant species selected from bermudagrass (Cynodon dactylon), Surinam grass (Brachiaria decumbens), large crabgrass (Digitaria sanguinalis), green foxtail (Setaria viridis), goosegrass (Eleusine indica), johnsongrass (Sorghum halepense), kochia (Kochia scoparia), pitted morningglory (Ipomoea lacunosa), purple nutsedge (Cyperus rotundus), common ragweed (Ambrosia elation), mustard (Brassica nigra), guineagrass (Panicum maximum), […] (Paspalum dilatatum), barnyardgrass (Echinochloa crus-galli), southern sandbur (Cenchrus echinatus), common sowthistle (Sonchus oleraceous), prickly […] spinosa), Italian ryegrass (Lolium multiflorum), common purslane (Portulaca oleracea), broadleaf signalgrass (Brachiaria platyphylla), common groundsel (Senecio vulgaris), common chickweed (Stellaria media), Virginia dayflower (Commelina virginica), annual bluegrass (Poa annua), naked crabgrass (Digitaria nuda), […] cochinchinensis), quackgrass (Elytrigia repens), Canada horseweed (Conyza canadensis), field bindweed (Convolvulus arvensis), […] (Bidens bipinnata), common mallow (Malva sylvestris), Russian thistle (Salsola kali), and sugarcane (Saccharum officinarum) were planted and treated preemergence with test chemicals formulated in a non-phytotoxic solvent mixture which included a surfactant. At a different time, sugarcane was treated with postemergence applications of some of the test chemicals formulated in the same manner. Plants were approximately 3- to 4-leaf stage for the postemergence treatments. Treated plants and controls were maintained in a greenhouse for 14 to 21 days, after which time all species were compared to controls and visually evaluated. […] A dash (-) response means no test result.
# velvetleaf = test: Test C pre-/postemergence test; format: in vivo, Abutilon theophrasti
# Procedure, shortened: as §1
# barnyardgrass [2] = test: Test F preemergence test; format: in vivo, Echinochloa crus-galli
# Procedure, shortened: as §2
# green foxtail = test: Test F preemergence test; format: in vivo, Setaria viridis; conditions: scale 0 to 100
# Procedure, shortened: as §2
# common mallow = test: Test F preemergence test; format: in vivo, Malva sylvestris; conditions: scale 0 to 100
# Procedure, shortened: as §2
# mustard = test: Test F preemergence test; format: in vivo, Brassica nigra; conditions: scale 0 to 100
# Procedure, shortened: as §2
# annual bluegrass = test: Test F preemergence test; format: in vivo, Poa annua; conditions: scale 0 to 100
# Procedure, shortened: as §2
# dallisgrass = test: Test F preemergence test; format: in vivo, Paspalum dilatatum; conditions: scale 0 to 100
# Procedure, shortened: as §2
# [3] = 62 g ai/ha, preemergence, scale 0 (no effect) to 100 (complete control)
# [4] = Postemergence, 125 g ai/ha, scale 0 to 100, 0 no effect, 100 complete control
# [5] = Postemergence, 250 g ai/ha, scale 0 to 100, 0 no effect, 100 complete control
# [6] = Postemergence, 500 g ai/ha, 0 is no effect, 100 is complete control
# [7] = Preemergence, 125 g ai/ha, 0 no effect, 100 complete control
# [8] = 62 g ai/ha, Preemergence, scale 0 to 100
# [9] = Preemergence, 31 g ai/ha, scale 0 to 100
# [10] = 125 g ai/ha, preemergence, scale 0 (no effect) to 100 (complete control)
# [11] = Preemergence, 31 g ai/ha, scale 0 to 100 (0 no effect, 100 complete control)
# [12] = preemergence, 250 g ai/ha, scale 0 (no effect) to 100 (complete control)
smiles,measurement,setting,value
Cn1nc(C(F)(F)F)c(C[S+]([O-])c2ccc(Cl)c[n+]2[O-])c1OC(F)F (centres unmarked) [Compound 6],Kochia plant response rating,kochia; [3],0
same,"Plant response rating (0 to 100), Kochia","kochia; Postemergence, 31 g ai/ha",0
same,"Plant response rating, Kochia","kochia; Postemergence, 62 g ai/ha, scale 0 to 100, 0 no effect, 100 complete control",0
same,"Plant response rating, Kochia",kochia; [4],0
same,"Plant response rating, Kochia",kochia; [5],0
same,"Plant response rating (0 to 100), Kochia","kochia; Preemergence, 250 g ai/ha",0
same,"Plant response rating, Itchgrass","itchgrass; 8 g ai/ha, preemergence",0
same,Itchgrass plant response rating,"itchgrass; 62 g ai/ha, Preemergence",95
same,"Plant response rating, Itchgrass","itchgrass; Preemergence, 16 g ai/ha",60
same,"Plant response rating, Itchgrass","itchgrass; Preemergence, 31 g ai/ha",75
same,"Plant response rating, Field Bindweed","field bindweed; 8 g ai/ha, preemergence",0
same,Field Bindweed plant response rating,"field bindweed; 62 g ai/ha, Preemergence",50
same,"Plant response rating, Field Bindweed","field bindweed; Preemergence, 16 g ai/ha",50
same,"Plant response rating, Field Bindweed","field bindweed; Preemergence, 31 g ai/ha",50
same,Cocklebur plant response rating,"cocklebur; 31 g ai/ha, Preemergence, scale 0 to 100",0
same,Cocklebur plant response rating,cocklebur; [3],0
same,"Plant response rating (0 to 100), Cocklebur","cocklebur; Postemergence, 31 g ai/ha",0
same,"Plant response rating, Cocklebur","cocklebur; Postemergence, 62 g ai/ha",0
same,"Plant response rating, Cocklebur","cocklebur; Postemergence, 125 g ai/ha",0
same,"Plant response rating, Cocklebur","cocklebur; Postemergence, 250 g ai/ha",0
same,"Plant response rating (0 to 100), Cocklebur","cocklebur; Preemergence, 250 g ai/ha",0
same,Cocklebur plant response rating,"cocklebur; preemergence, 125 g ai/ha, scale 0 (no effect) to 100 (complete control)",0
same,"Plant response rating, Signalgrass","broadleaf signalgrass; 8 g ai/ha, preemergence",0
same,"Plant response rating, Signalgrass","broadleaf signalgrass; 16 g ai/ha, preemergence",50
same,Signalgrass plant response rating,"broadleaf signalgrass; 62 g ai/ha, Preemergence",95
same,"Plant response rating, Signalgrass","broadleaf signalgrass; Preemergence, 31 g ai/ha",65
same,Barnyardgrass plant response rating,"barnyardgrass [1]; Postemergence, 125 g ai/ha, 0 is no effect, 100 is complete control",80
same,Barnyardgrass plant response rating,barnyardgrass [1]; [6],90
same,Barnyardgrass plant response rating,barnyardgrass [1]; [7],100
same,"Plant response rating, Barnyardgrass","barnyardgrass [1]; Preemergence, 500 g ai/ha",100
same,"Plant response rating, Dayflower","Virginia dayflower; 8 g ai/ha, preemergence",0
same,Dayflower plant response rating,"Virginia dayflower; 62 g ai/ha, Preemergence",100
same,"Plant response rating, Dayflower","Virginia dayflower; Preemergence, 16 g ai/ha",90
same,"Plant response rating, Dayflower","Virginia dayflower; Preemergence, 31 g ai/ha",90
same,Velvetleaf plant response rating,velvetleaf; [3],0
same,"Plant response rating (0 to 100), Velvetleaf","velvetleaf; Postemergence, 31 g ai/ha",0
same,"Plant response rating (0 to 100), Velvetleaf","velvetleaf; Postemergence, 62 g ai/ha",10
same,"Plant response rating, Velvetleaf",velvetleaf; [4],30
same,"Plant response rating, Velvetleaf",velvetleaf; [5],50
same,"Plant response rating (0 to 100), Velvetleaf","velvetleaf; Preemergence, 250 g ai/ha",40
same,"Plant response rating, Barnyardgrass","barnyardgrass [2]; 8 g ai/ha, preemergence, scale 0 to 100",0
same,Barnyardgrass plant response rating,barnyardgrass [2]; [8],90
same,"Plant response rating, Barnyardgrass","barnyardgrass [2]; Preemergence, 16 g ai/ha, scale 0 to 100",70
same,"Plant response rating, Barnyardgrass",barnyardgrass [2]; [9],80
same,"Plant response rating, Foxtail, Green","green foxtail; 8 g ai/ha, preemergence",0
same,"Foxtail, Green plant response rating","green foxtail; 62 g ai/ha, Preemergence",85
same,"Plant response rating, Foxtail, Green","green foxtail; Preemergence, 16 g ai/ha",65
same,"Plant response rating, Foxtail, Green","green foxtail; Preemergence, 31 g ai/ha",80
same,"Plant response rating, Mallow","common mallow; 8 g ai/ha, preemergence",0
same,Mallow plant response rating,"common mallow; 62 g ai/ha, Preemergence",90
same,"Plant response rating, Mallow","common mallow; Preemergence, 16 g ai/ha",0
same,"Plant response rating, Mallow","common mallow; Preemergence, 31 g ai/ha",30
same,"Plant response rating, Black Mustard","mustard; 8 g ai/ha, preemergence",0
same,Black Mustard plant response rating,"mustard; 62 g ai/ha, Preemergence",100
same,"Plant response rating, Black Mustard","mustard; Preemergence, 16 g ai/ha",0
same,"Plant response rating, Black Mustard","mustard; Preemergence, 31 g ai/ha",100
same,"Plant response rating, Bluegrass","annual bluegrass; 8 g ai/ha, preemergence",0
same,Bluegrass plant response rating,"annual bluegrass; 62 g ai/ha, Preemergence",90
same,"Plant response rating, Bluegrass","annual bluegrass; Preemergence, 16 g ai/ha",10
same,"Plant response rating, Bluegrass","annual bluegrass; Preemergence, 31 g ai/ha",75
same,"Plant response rating, Dallisgrass","dallisgrass; 8 g ai/ha, preemergence",0
same,Dallisgrass plant response rating,"dallisgrass; 62 g ai/ha, Preemergence",70
same,"Plant response rating, Dallisgrass","dallisgrass; Preemergence, 16 g ai/ha",20
same,"Plant response rating, Dallisgrass","dallisgrass; Preemergence, 31 g ai/ha",50
CCn1nc(C(F)(F)F)c(C[S+]([O-])c2cc(C)cc[n+]2[O-])c1OCC(F)(F)F (racemic) [Compound 66],Kochia plant response rating,kochia; [8],100
same,Kochia plant response rating,kochia; [10],100
same,"Plant response rating, Kochia",kochia; [11],100
same,Kochia plant response rating,kochia; [12],100
same,"Plant response rating, Itchgrass","itchgrass; 16 g ai/ha, preemergence",0
same,Itchgrass plant response rating,"itchgrass; 62 g ai/ha, Preemergence",70
same,Itchgrass plant response rating,"itchgrass; 125 g ai/ha, preemergence",90
same,"Plant response rating, Itchgrass","itchgrass; Preemergence, 31 g ai/ha",50
same,"Plant response rating, Field Bindweed","field bindweed; 16 g ai/ha, preemergence",30
same,Field Bindweed plant response rating,"field bindweed; 62 g ai/ha, Preemergence",40
same,Field Bindweed plant response rating,"field bindweed; 125 g ai/ha, preemergence",75
same,"Plant response rating, Field Bindweed","field bindweed; Preemergence, 31 g ai/ha",40
same,Cocklebur plant response rating,cocklebur; [8],0
same,Cocklebur plant response rating,cocklebur; [12],85
same,"Plant response rating, Signalgrass","broadleaf signalgrass; 16 g ai/ha, preemergence",30
same,Signalgrass plant response rating,"broadleaf signalgrass; 125 g ai/ha, preemergence",95
same,"Plant response rating, Signalgrass","broadleaf signalgrass; Preemergence, 62 g ai/ha",65
same,"Plant response rating, Signalgrass","broadleaf signalgrass; Preemergence, 31 g ai/ha",30
same,"Plant response rating, Barnyardgrass","barnyardgrass [1]; Postemergence, 125 g ai/ha",70
same,Barnyardgrass plant response rating,barnyardgrass [1]; [6],90
same,Barnyardgrass plant response rating,barnyardgrass [1]; [7],60
same,"Plant response rating, Barnyardgrass","barnyardgrass [1]; Preemergence, 500 g ai/ha",100
same,"Plant response rating, Dayflower","Virginia dayflower; 16 g ai/ha, preemergence",0
same,"Plant response rating, Dayflower","Virginia dayflower; Preemergence, 31 g ai/ha",0
same,Velvetleaf plant response rating,velvetleaf; [8],90
same,Velvetleaf plant response rating,velvetleaf; [10],95
same,"Plant response rating, Velvetleaf",velvetleaf; [11],70
same,Velvetleaf plant response rating,velvetleaf; [12],100
same,"Plant response rating, Barnyardgrass","barnyardgrass [2]; 16 g ai/ha, preemergence, scale 0 to 100 (0 no effect, 100 complete control)",30
same,Barnyardgrass plant response rating,barnyardgrass [2]; [8],100
same,Barnyardgrass plant response rating,"barnyardgrass [2]; 125 g ai/ha, preemergence, scale 0 to 100",100
same,"Plant response rating, Barnyardgrass",barnyardgrass [2]; [9],75
same,"Plant response rating, Foxtail, Green","green foxtail; 16 g ai/ha, preemergence",10
same,"Foxtail, Green plant response rating","green foxtail; 62 g ai/ha, Preemergence",90
same,"Foxtail, Green plant response rating","green foxtail; 125 g ai/ha, preemergence",100
same,"Plant response rating, Foxtail, Green","green foxtail; Preemergence, 31 g ai/ha",60
same,"Plant response rating, Mallow","common mallow; 16 g ai/ha, preemergence",0
same,Mallow plant response rating,"common mallow; 62 g ai/ha, Preemergence",80
same,Mallow plant response rating,"common mallow; 125 g ai/ha, preemergence",100
same,"Plant response rating, Mallow","common mallow; Preemergence, 31 g ai/ha",70
same,"Plant response rating, Black Mustard","mustard; 16 g ai/ha, preemergence",50
same,Black Mustard plant response rating,"mustard; 62 g ai/ha, Preemergence",100
same,Black Mustard plant response rating,"mustard; 125 g ai/ha, preemergence",100
same,"Plant response rating, Black Mustard","mustard; Preemergence, 31 g ai/ha",65
same,"Plant response rating, Bluegrass","annual bluegrass; 16 g ai/ha, preemergence",0
same,Bluegrass plant response rating,"annual bluegrass; 62 g ai/ha, Preemergence",70
same,Bluegrass plant response rating,"annual bluegrass; 125 g ai/ha, preemergence",80
same,"Plant response rating, Bluegrass","annual bluegrass; Preemergence, 31 g ai/ha",20
same,"Plant response rating, Dallisgrass","dallisgrass; 16 g ai/ha, preemergence",0
same,Dallisgrass plant response rating,"dallisgrass; 62 g ai/ha, Preemergence",95
same,Dallisgrass plant response rating,"dallisgrass; 125 g ai/ha, preemergence",100
same,"Plant response rating, Dallisgrass","dallisgrass; Preemergence, 31 g ai/ha",65

# Source: patent US20100298141A1, “SUBSTITUTED PYRIDINE N-OXIDE HERBICIDES” (E. I. DU PONT DE NEMOURS AND COMPANY, priority 2007, published 2010)
